According to patent US20260182574A1 (priority 2022, published 2026):

Columns and labels:
Botrytis cinerea [1] = assay: Activity against the grey mold Botrytis cinerea in the microtiterplate test; format: cell-based; conditions: 31 ppm; microtiter plate, 405 nm, 7 days after inoculation
Corynespora zeae = assay: Activity against Corynespora zeae in the microtiterplate test; format: cell-based; conditions: 31 ppm; microtiter plate
Botrytis cinerea [2] = assay: Long lasting control of Botrytis cinerea on leaves of green pepper (green house); format: in vivo; conditions: 125 ppm; green pepper sprayed 7 days before inoculation; assessed after 5 days; untreated plants 90% infected
Protocol: (§1) The compound was dissolved in a mixture of acetone and/or dimethylsulfoxide and the wetting agent/emulsifier Wettol, which is based on ethoxylated alkylphenoles, in a ratio (volume) solvent-emulsifier of 99 to 1 to give a total volume of 5 ml. Subsequently, water was added to total volume of 100 ml.
(§2) This stock solution was then diluted with the described solvent-emulsifier-water mixture to the final concentration given in the table below.
Young seedlings of green pepper were grown in pots to the 4 to 5 leaf stage. These plants were sprayed to run-off with previously described spray solution, containing the concentration of active ingredient or mixture mentioned in the table below. The plants were then cultivated in the greenhouse for 7 days and then inoculated with an aqueous biomalt or DOB solution containing the spore suspension of Botrytis cinerea. Then the plants were immediately transferred to a humid chamber. After 5 days at 22 to 24 °C and a saturated relative humidity, the extent of fungal attack on the leaves was visually assessed as % diseased leaf area.

Sclerotinia sclerotiorum = assay: Preventative fungicidal control of white mold on cabbage caused by Sclerotinia sclerotiorum (green house); format: in vivo; conditions: 125 ppm; cabbage sprayed 1 day before inoculation; assessed after 8 days; untreated plants 80% infected
Protocol: as §1, §2
Cabagges were grown in pots to the 13 to 14 leaf stage. These plants were sprayed to run-off with previously described spray solution, containing the concentration of active ingredient or their mixture mentioned in the table below. The plants could air-dry. The next day the cabbage leaves were inoculated with 50 μl of a mixture of ground petals, methylcellulose, water, and yeast-bactopeptone media (includes spores of Sclerotinia sclerotiorum). After 8 days at 21° C. and a relative humidity of 60% the extent of fungal attack on the leaves were visually assessed as % diseased leaf area.

Cercospora sojina = assay: Activity against Cercospora sojina in the microtiterplate test; format: cell-based; conditions: 31 ppm; microtiter plate
[3] = tested on: Corynespora cassiicola G413A mutant; assay: Activity against Corynespora cassiicola G413A mutant in the microtiterplate test; format: cell-based; conditions: 31 ppm; microtiter plate; G413A mutant isolates

| Structure (SMILES) | growth of the pathogen (relative to compound-free control = 100%) (Botrytis cinerea [1]) [%] | growth of the pathogen (relative to compound-free control = 100%) (Corynespora zeae) [%] | growth of the pathogen (% diseased leaf area) (Botrytis cinerea [2]) | growth of the pathogen (% diseased leaf area) (Sclerotinia sclerotiorum) | growth of the pathogen (relative to compound-free control = 100%) (Cercospora sojina) [%] | growth of the pathogen (relative to compound-free control = 100%) [3] [%] |
| --- | --- | --- | --- | --- | --- | --- |
| CN1c2ccccc2C(c2cnc3c(F)cccc3c2)=NC(=O)C1(C)C [Ex-10] | 4 | 8 |  |  |  |  |
| CC1(C)C(=O)N=C(c2cnc3c(F)cccc3c2)c2ccccc2N1C#N [Ex-12] | 4 |  |  |  |  |  |
| CN1CC2(CC2)N=C(c2cnc3c(F)cccc3c2)c2cccc(F)c21 [Ex-17] | 4 |  | up to 15% | up to 8% | 6 | 11 |
